In patent US20230091047A1 (priority 2019, published 2023):

Key:
[1] = test system: HBV (HepG2.117 cell line, inducibly HBV producing); assay: Anti-HBV activity: intracellular HBV DNA by real-time PCR in HepG2.117 cells after 3 days of treatment; assay type: cell-based, hepatitis B virus; details: Hepatitis B virus, HepG2.117, 72 h, HepG2.117 cells, 3 days of treatment, intracellular HBV DNA by real-time PCR; mean value; read-out: EC50 (μM, mean value)
In short: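 HepG2.117 cells (Tet-off, inducible HBV production) were induced to replicate HBV by doxycycline absence, then treated with serially diluted compound for 3 days. Activity was quantified as intracellular HBV DNA by real-time PCR using an HBV-specific primer set and probe.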

[2] = in vitro; assay type: cell-based; details: human, HepG2 or HepG2.117 cells, 3-days incubation (unmarked values), ATPlite; mean value
In short: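 Luminescent ATP quantitation served as the viability endpoint following a 3- or 4-day incubation with test compounds.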

Compound	EC50 [1]	CC50 at 3 days [2]
CCNc1nc2c(c(=O)n1-c1ccccc1OC)CCN(C(=O)c1ccc(Cl)c(Cl)c1)C2 [Compound C38, 7-(3,4-dichlorobenzoyl)-2-(ethylamino)-3-(2-methoxyphenyl)-5,6,7,8-tetrahydropyrido[3,4-d]pyrimidin-4(3H)-one]	6.87 µM	> 50 µM
COc1ccccc1-n1c(N2CCCC2)nc2c(c1=O)CCN(C(=O)c1ccc(Cl)c(Cl)c1)C2 [Compound C39, 7-(3,4-dichlorobenzoyl)-3-(2-methoxyphenyl)-2-(pyrrolidin-1-yl)-5,6,7,8-tetrahydropyrido[3,4-d]pyrimidin-4(3H)-one]	9.21 µM	> 50 µM
COc1ccccc1-n1c(N2CCOCC2)nc2c(c1=O)CCN(C(=O)c1ccc(Cl)c(Cl)c1)C2 [Compound C40, 7-(3,4-dichlorobenzoyl)-3-(2-methoxyphenyl)-2-(morpholin-4-yl)-5,6,7,8-tetrahydropyrido[3,4-d]pyrimidin-4(3H)-one]	11 µM	> 50 µM
COc1ccc(CNc2nc3c(c(=O)n2Cc2ccccc2)CCN(C(=O)c2ccc(Cl)c(Cl)c2)C3)cc1 [Compound C41, 3-benzyl-7-(3,4-dichlorobenzoyl)-2-{[(4-methoxyphenyl)methyl]amino}-5,6,7,8-tetrahydropyrido[3,4-d]pyrimidin-4(3H)-one]	8.7 µM	> 50 µM
CC(C)Nc1nc2c(c(=O)[nH]1)CCN(C(=O)c1ccc(Cl)c(Cl)c1)C2 [Compound C42, 7-(3,4-dichlorobenzoyl)-2-[(propan-2-yl)amino]-5,6,7,8-tetrahydropyrido[3,4-d]pyrimidin-4(3H)-one]	2.79 µM	> 50 µM
COc1ccc(CN(C)c2nc3c(c(=O)n2-c2ccccc2OC)CCN(C(=O)c2ccc(Cl)c(Cl)c2)C3)cc1 [Compound C43, 7-(3,4-dichlorobenzoyl)-3-(2-methoxyphenyl)-2-{[(4-methoxyphenyl)methyl](methyl)amino}-5,6,7,8-tetrahydropyrido[3,4-d]pyrimidin-4(3H)-one]	5.64 µM	> 50 µM
COc1ccccc1-n1c(N[C@H](C)c2ccccc2)nc2c(c1=O)CCN(C(=O)c1ccc(Cl)c(Cl)c1)C2 [Compound C44, 7-(3,4-dichlorobenzoyl)-3-(2-methoxyphenyl)-2-{[(1R)-1-phenylethyl]amino}-5,6,7,8-tetrahydropyrido[3,4-d]pyrimidin-4(3H)-one]	6.99 µM	25.3 µM
COc1ccccc1-n1c(NC2CCCC2)nc2c(c1=O)CCN(C(=O)c1ccc(Cl)c(Cl)c1)C2 [Compound C45, 2-(cyclopentylamino)-7-(3,4-dichlorobenzoyl)-3-(2-methoxyphenyl)-5,6,7,8-tetrahydropyrido[3,4-d]pyrimidin-4(3H)-one]	6.62 µM	27.2 µM
COc1ccccc1-n1c(N(C)C)nc2c(c1=O)CCN(C(=O)c1ccc(Cl)c(Cl)c1)C2 [Compound C46, 7-(3,4-dichlorobenzoyl)-2-(dimethylamino)-3-(2-methoxyphenyl)-5,6,7,8-tetrahydropyrido[3,4-d]pyrimidin-4(3H)-one]	6.49 µM	> 50 µM
COc1ccccc1-n1c(NC(C)C2CC2)nc2c(c1=O)CCN(C(=O)c1ccc(Cl)c(Cl)c1)C2 (stereo not drawn) [Compound C47, 2-[(1-cyclopropylethyl)amino]-7-(3,4-dichlorobenzoyl)-3-(2-methoxyphenyl)-5,6,7,8-tetrahydropyrido[3,4-d]pyrimidin-4(3H)-one]	2.68 µM	27.3 µM
COc1ccccc1-n1c(NC2COC2)nc2c(c1=O)CCN(C(=O)c1ccc(Cl)c(Cl)c1)C2 [Compound C48, 7-(3,4-dichlorobenzoyl)-3-(2-methoxyphenyl)-2-[(oxetan-3-yl)amino]-5,6,7,8-tetrahydropyrido[3,4-d]pyrimidin-4(3H)-one]	30.1 µM	> 50 µM
CCC(C)Nc1nc2c(c(=O)n1-c1ccccc1OC)CCN(C(=O)c1ccc(Cl)c(Cl)c1)C2 (stereo not drawn) [Compound C49, 2-[(butan-2-yl)amino]-7-(3,4-dichlorobenzoyl)-3-(2-methoxyphenyl)-5,6,7,8-tetrahydropyrido[3,4-d]pyrimidin-4(3H)-one]	2.41 µM	26.8 µM
COc1ccccc1-n1c(NCC2CC2)nc2c(c1=O)CCN(C(=O)c1ccc(Cl)c(Cl)c1)C2 [Compound C50, 2-[(cyclopropylmethyl)amino]-7-(3,4-dichlorobenzoyl)-3-(2-methoxyphenyl)-5,6,7,8-tetrahydropyrido[3,4-d]pyrimidin-4(3H)-one]	5.85 µM	26.7 µM
COCCn1c(NCc2ccc(OC)cc2)nc2c(c1=O)CCN(C(=O)c1ccc(Cl)c(Cl)c1)C2 [Compound C51, 7-(3,4-dichlorobenzoyl)-3-(2-methoxyethyl)-2-{[(4-methoxyphenyl)methyl]amino}-5,6,7,8-tetrahydropyrido[3,4-d]pyrimidin-4(3H)-one]	4.35 µM	36.6 µM
COc1ccc(CNc2nc3c(c(=O)n2C)CCN(C(=O)c2ccc(Cl)c(Cl)c2)C3)cc1 [Compound C52, 7-(3,4-dichlorobenzoyl)-2-{[(4-methoxyphenyl)methyl]amino}-3-methyl-5,6,7,8-tetrahydropyrido[3,4-d]pyrimidin-4(3H)-one]	5.1 µM	> 50 µM
COc1ccccc1-n1c(NC(C)(C)C)nc2c(c1=O)CCN(C(=O)c1ccc(Cl)c(Cl)c1)C2 [Compound C53, 2-(tert-butylamino)-7-(3,4-dichlorobenzoyl)-3-(2-methoxyphenyl)-5,6,7,8-tetrahydropyrido[3,4-d]pyrimidin-4(3H)-one]	2.05 µM	31.6 µM
COc1ccccc1-n1c(OC)nc2c(c1=O)CCN(C(=O)c1ccc(Cl)c(Cl)c1)C2 [Compound C54, 7-(3,4-dichlorobenzoyl)-2-methoxy-3-(2-methoxyphenyl)-5,6,7,8-tetrahydropyrido[3,4-d]pyrimidin-4(3H)-one]	4.59 µM	29.7 µM
COc1ccccc1-n1c(NC2CCc3ccccc32)nc2c(c1=O)CCN(C(=O)c1ccc(Cl)c(Cl)c1)C2 (stereo not drawn) [Compound C55, 7-(3,4-dichlorobenzoyl)-2-[(2,3-dihydro-1H-inden-1-yl)amino]-3-(2-methoxyphenyl)-5,6,7,8-tetrahydropyrido[3,4-d]pyrimidin-4(3H)-one]	22.1 µM	23.6 µM
COc1ccccc1-n1c(NC(C)c2ccncc2)nc2c(c1=O)CCN(C(=O)c1ccc(Cl)c(Cl)c1)C2 (stereo not drawn) [Compound C56, 7-(3,4-dichlorobenzoyl)-3-(2-methoxyphenyl)-2-{[1-(pyridin-4-yl)ethyl]amino}-5,6,7,8-tetrahydropyrido[3,4-d]pyrimidin-4(3H)-one]	1.93 µM	> 50 µM
COc1ccccc1-n1c(N)nc2c(c1=O)CCN(C(=O)c1ccc(Cl)c(Cl)c1)C2 [Compound C57, 2-amino-7-(3,4-dichlorobenzoyl)-3-(2-methoxyphenyl)-5,6,7,8-tetrahydropyrido[3,4-d]pyrimidin-4(3H)-one]	0.91 µM	> 50 µM
COc1ccc(CNc2nc3c(c(=O)n2C2COC2)CCN(C(=O)c2ccc(Cl)c(Cl)c2)C3)cc1 [Compound C58, 7-(3,4-dichlorobenzoyl)-2-{[(4-methoxyphenyl)methyl]amino}-3-(oxetan-3-yl)-5,6,7,8-tetrahydropyrido[3,4-d]pyrimidin-4(3H)-one]	2.56 µM	42.8 µM
COc1ccc(CNc2nc3c(c(=O)n2CC2CC2)CCN(C(=O)c2ccc(Cl)c(Cl)c2)C3)cc1 [Compound C59, 3-(cyclopropylmethyl)-7-(3,4-dichlorobenzoyl)-2-{[(4-methoxyphenyl)methyl]amino}-5,6,7,8-tetrahydropyrido[3,4-d]pyrimidin-4(3H)-one]	2.53 µM	> 50 µM
COc1ccc(CNc2nc3c(c(=O)[nH]2)CCN(C(=O)c2ccc(Cl)c(C)c2)C3)cc1 [Compound C60, 7-(4-chloro-3-methylbenzoyl)-2-{[(4-methoxyphenyl)methyl]amino}-5,6,7,8-tetrahydropyrido[3,4-d]pyrimidin-4(3H)-one]	3.25 µM	23.8 µM
COc1ccc(CNc2nc3c(c(=O)[nH]2)CC(C)N(C(=O)c2ccc(Cl)c(Cl)c2)C3)cc1 (stereo not drawn) [Compound C63, 7-(3,4-dichlorobenzoyl)-2-{[(4-methoxyphenyl)methyl]amino}-6-methyl-5,6,7,8-tetrahydropyrido[3,4-d]pyrimidin-4(3H)-one]	2.59 µM	28.4 µM
COc1ccc(CNc2nc3c(c(=O)[nH]2)C[C@@H](C)N(C(=O)c2ccc(Cl)c(Cl)c2)C3)cc1 [Compound C63A, (6R)-7-(3,4-dichlorobenzoyl)-2-{[(4-methoxyphenyl)methyl]amino}-6-methyl-5,6,7,8-tetrahydropyrido[3,4-d]pyrimidin-4(3H)-one]	3.58 µM	30.4 µM
COc1ccc(CNc2nc3c(c(=O)[nH]2)C[C@H](C)N(C(=O)c2ccc(Cl)c(Cl)c2)C3)cc1 [Compound C63B, (6S)-7-(3,4-dichlorobenzoyl)-2-{[(4-methoxyphenyl)methyl]amino}-6-methyl-5,6,7,8-tetrahydropyrido[3,4-d]pyrimidin-4(3H)-one]	1.63 µM	35.3 µM
COc1ccc(CNc2nc3c(c(=O)n2C2CCCCC2)CCN(C(=O)c2ccc(Cl)c(Cl)c2)C3)cc1 [Compound C64, 3-cyclohexyl-7-(3,4-dichlorobenzoyl)-2-{[(4-methoxyphenyl)methyl]amino}-5,6,7,8-tetrahydropyrido[3,4-d]pyrimidin-4(3H)-one]	8.91 µM	> 50 µM
